Source: patent US7820673B2, “Urea derivative, process for producing the same, and use” (Takeda Pharmaceutical Company Limited, priority 2003, dated 2010)

molecular target: human FXa (Homo sapiens, UniProt P00742); experiment: Human activated blood coagulation factor X (FXa) inhibitory action; type: biochemical; conditions: concentration inhibiting 50% of the FXa action; substrate S-2765, 37° C., absorbance at 405 nm
Protocol: (1) Human Activated Blood Coagulation Factor X (FXa) Inhibitory Action
Method of experiment: 225 μl of a 0.05 M Tris hydrochloride buffer (pH 8.3) containing 0.145 M sodium chloride and 2 mM calcium chloride, 5 μl of a sample (the test compound is dissolved in dimethylsulfoxide), and 10 μl of human FXa (0.3 unit/ml) were added to a 96-well microplate to react at 37° C. for about 10 minutes, and then 10 μl of a substrate (3 mM, S-2765) was added thereto to react at 37° C. for about 10 minutes. Subsequently, 25 μl of a 50% aqueous acetic acid solution was added to terminate the reaction, and then the change in the absorbance at 405 nm was measured with a spectrophotometer to calculate the concentration inhibiting 50% of the FXa action (IC50).

Sequence of human FXa (P00742 235-488 limits assumed): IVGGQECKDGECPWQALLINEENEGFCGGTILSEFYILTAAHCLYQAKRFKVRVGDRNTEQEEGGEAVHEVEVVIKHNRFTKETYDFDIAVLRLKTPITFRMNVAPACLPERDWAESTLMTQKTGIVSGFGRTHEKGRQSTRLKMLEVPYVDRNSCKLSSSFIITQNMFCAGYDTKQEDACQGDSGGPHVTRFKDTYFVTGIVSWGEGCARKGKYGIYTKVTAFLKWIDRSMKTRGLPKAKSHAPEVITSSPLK
Sequence of human FXa (P00742 41-179 partner limits assumed): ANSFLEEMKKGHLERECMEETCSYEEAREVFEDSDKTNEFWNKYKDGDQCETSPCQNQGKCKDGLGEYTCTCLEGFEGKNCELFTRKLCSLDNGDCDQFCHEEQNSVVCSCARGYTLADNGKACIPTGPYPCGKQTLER

| IC50 | SMILES |
| --- | --- |
| 18 nM | Cc1ncc2n1C(=O)N(N1CCN(C(=O)[C@H](NC(=O)Nc3ccc(Cl)cc3)C(C)(C)C)CC1)C2 [Example 20, N—(4-chlorophenyl)—N′—((1R)-2,2-dimethyl-1-((4-(5-methyl-3-oxo-1H-imidazo[1,5-c]imidazol-2(3H)-yl)-1-piperazinyl)carbonyl)propyl)urea] |
| 26 nM | CCC(O)(CC)C(NC(=O)Nc1ccc(Cl)cc1)C(=O)N1CCN(N2Cc3cnc(C)n3C2=O)CC1 (stereo not shown) [Example 37, N—(4-chlorophenyl)—N ′—(2-ethyl-2-hydroxy-1-((4-(5-methyl-3-oxo-1H-imidazo[1,5-c]imidazol-2(3H)-yl)-1-piperazinyl)carbonyl)butyl)urea] |
| 10 nM | CSC(C)(C)[C@@H](NC(=O)Nc1ccc(Cl)cc1)C(=O)N1CCN(N2Cc3cnc(C)n3C2=O)CC1 [Example 40, N—(4-chlorophenyl)—N′—((1S)-2-methyl-1-((4-(5-methyl-3-oxo-1H-imidazo[1,5-c]imidazol-2(3H)-yl)-1-piperazinyl)carbonyl)-2-(methylthio)propyl)urea] |
| 50 nM | COC(C)(C)C(NC(=O)Nc1ccc(Cl)cc1)C(=O)N1CCN(N2Cc3cnc(C)n3C2=O)CC1 (stereo not shown) [Example 74, N-(4-chlorophenyl)-N′-(2-methoxy-2-methyl-1-((4-(5-methyl-3-oxo-1H-imidazo[1,5-c]imidazol-2(3H)-yl)-1-piperazinyl)carbonyl)propyl)urea] |
